Assay results published in patent US11072601B2, “μ-opioid receptor agonist and preparation method therefor and use thereof in field of medicine” (SHANGHAI SYNERGY PHARMACEUTICAL SCIENCES CO., LTD., priority 2017, dated 2021).

Experiments:
[1] = system: SD rats; assay: Respiratory depression in rats, arterial blood gas PCO2; assay type: in vivo; details: for PCO2, 5 min before administration: arterial blood; for PCO2, 5 min after administration / PCO2, 30 min after administration / PCO2, 60 min after administration / PCO2, 120 min after administration: intravenous single dose 0.3 mg/kg (morphine 24 mg/kg)
[2] = target: T1, cAMP pathway of MOR receptor (Homo sapiens, UniProt P35372); assay: cell-based; details: cAMP Hunter HEK293 cells, forskolin-induced cAMP; read-out: EC50 of cAMP levels affected by agonistic effect on MOR
T1 construct: host or cells: HEK293 (cAMP Hunter cell line)
T1 sequence (P35372 whole entry): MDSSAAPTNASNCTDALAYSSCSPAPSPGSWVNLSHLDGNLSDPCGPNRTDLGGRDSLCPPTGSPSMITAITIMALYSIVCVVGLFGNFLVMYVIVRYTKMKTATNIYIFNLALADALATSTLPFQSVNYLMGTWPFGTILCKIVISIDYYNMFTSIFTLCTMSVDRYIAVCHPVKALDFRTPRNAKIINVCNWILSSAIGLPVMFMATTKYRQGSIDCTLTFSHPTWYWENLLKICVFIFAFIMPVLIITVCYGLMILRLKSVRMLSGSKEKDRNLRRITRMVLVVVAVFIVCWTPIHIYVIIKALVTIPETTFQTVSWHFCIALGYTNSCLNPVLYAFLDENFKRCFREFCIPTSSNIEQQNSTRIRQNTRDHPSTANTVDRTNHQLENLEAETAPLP

[3] = system: rat surgical incision injury model; assay: Rat surgical incision injury model, von Frey paw withdrawal threshold; assay type: in vivo, SD rats; details: rats, intravenous 0.3 mg/kg
Excerpt: 8-week-old male SD rats weighing 200 g-300 g were used as experimental animals to determine the effect of the compound of Example H02, the compound of Example H04, the compound of Example H10, the compound of Example H16, the compound of Example H17, the compound of Example H18, the compound of Example H21 and the compound of Example H24 on surgical pain in rats after intravenous administration. The analgesic effect of the compounds was discussed.
A certain amount of the compounds or TRV130 (MCE, 15150) was weighed, and dissolved in ethanol/castor oil/water=10/10/80 as a clear and transparent solution.
Three days after the rats were acclimatized to the experimental environment, the preoperative base value was determined, and followed by the surgical pain operation described below, about 24 hours after the surgery, the basic value was measured before administration on all animals, and mechanically hypersensitive animals (the paw withdrawal threshold (PWT) was less than 5 g) was randomly assigned to each administration group according to PWT. The pain threshold was determined 30 minutes and 60 minutes after intravenous administration of the positive drug TRV130 or each compound of the present invention (at a dose of 0.3 mg/kg).
The surgical procedure was performed aseptically, and the surgical instruments (scissors, tweezers, scalpels, surgical cotton and sutures) were sterilized before surgery. The animals were anesthetized with sodium pentobarbital (50 mg/kg, injected intraperitoneally), and the toes of the animals were squeezed to confirm that the animals were completely anesthetized before surgery. From the position of 0.5 cm away from the heel, an incision about 1 cm was made in the longitudinal direction of the toe. After cutting the skin, the musculus flexor digitorum brevis was raised and a blunt injury was caused longitudinally. After pressing to stop bleeding, the wound was sutured. When the animal was completely awake (free to move), the animal was put back into the cage (the reference of the construction of surgical pain model: Timothy J. Brennan, Erik P. Vandermeulen, G. F. Gebhart. Characterization of a rat model of incisional pain. Pain, 64(1996):493-501).
An up-down method was used for the determination of pain sensitivity. The mechanical pain results were expressed as animal paw withdrawal response threshold (PWT). The rat was placed separately in a plexiglass box with a mesh at the bottom of the box to ensure that the rat's feet could be tested. The rat was acclimatized for 15 minutes before the test, and after the acclimatization, the test fiber (von frey fiber, West coast) was used to test in the middle part of the hind foot of the rat. The test fibers included 8 test strengths: 3.61 (0.4 g), 3.84 (0.6 g), 4.08 (1 g), 4.31 (2 g), 4.56 (4 g), 4.74 (6 g), 4.93 (8 g), and 5.18 (15 g). During the test, the test fiber was pressed vertically against the skin and a force was applied to bend the fiber for 6-8 seconds, at an interval of 5 seconds between each test. During the test, the animal's rapid withdrawal was recorded as a pain response. When the test fiber left the animal's skin, the animal's withdrawal was also recorded as a pain response. Starting from 2 g, depending on whether the rats had any pain response, the test was changed into the next test intensity or the previous test intensity. A series of responses of the rats to different test intensities were recorded. […] Wherein, Xf was the logarithmic value of von Frey fiber used in the last test, and K value was the animal withdrawal reaction mode (recorded during the test), which was the value obtained after looking up the table according to the obtained sequence of “X” and “O”, δ=Mean of logarithmic difference between von Frey fibers used in the test.

| Compound | PCO2, 5 min before administration [1] [mmHg] | PCO2, 5 min after administration [1] [mmHg] | PCO2, 30 min after administration [1] [mmHg] | PCO2, 60 min after administration [1] [mmHg] | PCO2, 120 min after administration [1] [mmHg] | EC50 [2] [nM] | 50% PWT, 30 min after administration [3] [g] | 50% PWT, 60 min after administration [3] [g] |
| --- | --- | --- | --- | --- | --- | --- | --- | --- |
| FC(F)(F)Oc1ccc(Cl)cc1CNCCC1(c2ccccn2)CCOC2(CCCC2)C1 (stereo not shown) [Example H17, (5-chloro-2-trifluoromethoxybenzyl)-[2-(9-(pyridin-2-yl)-6-oxaspiro[4.5]decan-9-yl)ethyl]amine] | 34.77 ± 1.88 | 35.48 ± 1.74 | 34.03 ± 1.69 | 34.27 ± 1.4 | 34.83 ± 1.15 | 1.89 | 8.85 ± 1.59 | 7.91 ± 1.43 |
| Cc1c(Cl)cccc1CNCCC1(c2ccccn2)CCOC2(CCCC2)C1 (stereo not shown) [Example H04, (3-chloro-2-methylbenzyl)-[2-(9-(pyridin-2-yl)-6-oxaspiro[4.5]decan-9-yl)ethyl]amine] | – | – | – | – | – | 4.36 | 11.72 ± 0.56 | 8.29 ± 1.06 |
| Fc1ccc(C2(CCNCc3ccccc3OC(F)(F)F)CCOC3(CCCC3)C2)nc1 (stereo not shown) [Example H21, {2-[9-(5-fluoro-pyridin-2-yl)-6-oxa-spiro[4.5]decan-9-yl]-ethyl}-(2-(trifluoromethoxy)-phenmethyl)-amine] | 36.77 ± 1.78 | 35.48 ± 1.72 | 36.03 ± 1.42 | 37.27 ± 1.94 | 36.83 ± 1.65 | 2.57 | 10.72 ± 2.56 | 8.29 ± 1.06 |
| FC(F)Oc1ccsc1CNCCC1(c2ccccn2)CCOC2(CCCC2)C1 (stereo not shown) [Example H18, ((3-difluoromethoxythiophen-2-yl)methyl)-[2-(9-(pyridin-2-yl)-6-oxaspiro[4.5]decan-9-yl)ethyl]a mine] | 33.77 ± 0.88 | 35.48 ± 1.54 | 34.03 ± 0.69 | 36.27 ± 1.4 | 34.83 ± 1.45 | 2.35 | 7.85 ± 0.54 | 6.91 ± 0.33 |
| FC(F)Oc1ccccc1CNCCC1(c2ccccn2)CCOC2(CCCC2)C1 (stereo not shown) [Example H16, (2-difluoromethoxybenzyl)-[2-(9-(pyridin-2-yl)-6-oxaspiro[4.5]decan-9-yl)ethyl]amine] | 35.27 ± 0.43 | 30.48 ± 1.24 | 30.03 ± 0.62 | 31.27 ± 1.2 | 31.83 ± 1.40 | 1.36 | 13.72 ± 0.56 | 10.29 ± 1.06 |
| CNc1ccsc1C(=O)NCCC1(c2ccccn2)CCOC2(CCCC2)C1 (stereo not shown) [Example H24, 3-methylamino-thiophene-2-carboxylic acid [2-(9-pyridin-2-yl-6-oxa-spiro[4.5]decan-9-yl)-ethyl]-amide] | 36.77 ± 1.94 | 36.48 ± 1.80 | 33.03 ± 0.72 | 36.27 ± 1.57 | 36.83 ± 1.73 | 3.74 | 11.32 ± 2.35 | 7.29 ± 1.23 |
